This note sets out measurements from the Deep4Chem optical property database.

A short description of the series: photoluminescence quantum yield (fraction); solvent given as SMILES.

Where “and” joins values, the source holds several entries; their conditions need not be identical. Equal entries are not always repeated.

In the case of `CC(C)c1cccc(C(C)C)c1N1C(=O)c2ccc3c(-c4ccc(C(=O)O)cc4)c4c5ccc6c7c(ccc(c(-c8ccc(C(=O)O)cc8)c4c4ccc(c2c34)C1=O)c75)C(=O)N(c1c(C(C)C)cccc1C(C)C)C6=O`, the photoluminescence quantum yield (in ClCCl) turned out to be 0.3.

Take `C[N+]1=C(/C=C/C=C2/N(CCC[N+](C)(C)C)c3ccc(Br)cc3C2(C)C)C(C)(C)c2ccccc21`: for the setting “in CS(C)=O”, the photoluminescence quantum yield stood at 0.11.

With `F[B-]1(F)OC(c2ccccc2)=Cc2c3ccccc3cc[n+]21`, the photoluminescence quantum yield (in ClC(Cl)Cl) was determined as 0.046.

Turning to `CCC12C(=C3C(=C4c5ccc(-c6ccc(C(C)=O)cc6)cc5S(=O)(=O)C41CC)C(F)(F)C(F)(F)C3(F)F)c1ccc(-c3ccc(C(C)=O)cc3)cc1S2(=O)=O` (stereo unspecified), the photoluminescence quantum yield (in C1COCCO1) was 0.87.

As for `Cc1ccc(/C=C/c2ccccc2-[n+]2noc([O-])c2-c2ccccc2)cc1`, the photoluminescence quantum yield reads like this: (in C1CCCCC1) 0.0018; (in CC#N) 0.0048.

For the molecule `CCCCC1(c2ccccc2)Nc2c(-c3ccc(N(C)C)cc3)ccc(-c3ccc(N(C)C)cc3)c2N=C1c1ccccc1` (stereo unspecified), the photoluminescence quantum yield (in ClC(Cl)Cl) was found to be 0.16.

Molecule `CCCCc1ccc(-n2c3c4ccc(C(F)(F)F)cc4nc(-c4ccc(C#N)cc4)c3c3c2c2c(-c4ccc(C#N)cc4)nc4cc(C(F)(F)F)ccc4c2n3-c2ccc(CCCC)cc2)cc1` had a photoluminescence quantum yield (in ClC(Cl)Cl) of 0.14.

As for `Cc1cn(CCCn2cc(C)c(=O)[nH]c2=O)c(=O)nc1-n1cncn1`, the photoluminescence quantum yield (in O) stood at 0.016.

As to `CC1(C)c2ccccc2-c2sc3ccccc3c21`, the photoluminescence quantum yield (in ClCCl) was 0.11.

In turn, `COc1cc2cc(OC)c(-c3ccc([N+](=O)[O-])cc3)cc2cc1-c1ccc([N+](=O)[O-])cc1` displayed a photoluminescence quantum yield (in ClC(Cl)Cl) of 0.01 and a photoluminescence quantum yield (in ClCCl) of 0.009.

`Cc1cc(C)c(C2=C3C=CC=[N+]3[B-]3(c4ccc5ccc6cccc7ccc4c5c67)Oc4cc(O)cc5c6ccc(C)cc6c6cc2n3c6c45)c(C)c1` (stereo unspecified) showed a photoluminescence quantum yield (in ClC(Cl)Cl) of 0.24.

Take `N#Cc1c(-n2c3ccccc3c3ccccc32)c(-n2c3ccccc3c3ccccc32)c(-n2c3ccccc3c3ccccc32)c(-n2c3ccccc3c3ccccc32)c1-n1c2ccccc2c2ccccc21`: the photoluminescence quantum yield runs as follows: (in Cc1ccccc1) 0.75 and 0.7; (in c1cc(-c2cccc(-n3c4ccccc4c4ccccc43)c2)cc(-n2c3ccccc3c3ccccc32)c1) 0.65.

For the setting “in CC#N”, `c1cc2c3c(cccc3c1)C(N1CCOCCOCCOCCOCC1)=N2` returned a photoluminescence quantum yield of 0.004.

`CC(C)(C)C#Cc1ccc2c3cccc4cccc(c5cccc1c52)c43`: where the note is “in C1CCCCC1”, the photoluminescence quantum yield came out at 0.91.

In the case of `Cc1ccc(C(=O)NN2C3=C(CC4=C2CCCC4=O)C(=O)CCC3)cc1`, the photoluminescence quantum yield by setting is: (in C1CCOC1) 0.31; (in CC#N) 0.55; (in CC(C)=O) 0.32; (in CCCCCO) 0.5; (in CO) 0.4; (in ClC(Cl)Cl) 0.77. In addition, the photoluminescence quantum yield (in ClCCl) was determined as 0.44.

With `COc1ccc([Si](C)(C)C)c2ccccc12`, the photoluminescence quantum yield (in C1CCCCC1) stood at 0.65.

`C(=C\c1cc(/C=C/c2ccc(N(c3ccccc3)c3ccccc3)cc2)ncn1)/c1ccc(N(c2ccccc2)c2ccccc2)cc1`: the photoluminescence quantum yield (in ClCCl) stood at 0.55.

`Cc1cc(-c2ccc(-c3nc4ccccc4[nH]3)cc2)ccc1-c1ccc(-c2nc3ccccc3[nH]2)cc1` gave a photoluminescence quantum yield (in CN(C)C=O) of 0.82.

On to `O=C(O)C1=C/C(=C/C=[N+]2/c3cc(O)c(C[C@@H]4O[C@H](CO)[C@@H](O)C(O)[C@H]4O)cc3C[C@H]2C(=O)O)C[C@H](C(=O)O)N1` (stereo partly specified), for which the photoluminescence quantum yield turned out to be 0.0015 (in CO), 0.0007 (in O), 0.0041 (in OCCO) and 0.001 (in [2H]O[2H]).

On to `ClP1(Cl)=N[P@](Cl)(Oc2ccc3ccc4cccc5ccc2c3c45)=N[P@@](Cl)(Oc2ccc3ccc4cccc5ccc2c3c45)=N1`, for which, where the note is “in ClCCl”, the photoluminescence quantum yield was determined as 0.76.

For `COC(=O)c1nc2c(OCc3ccccc3)nc(N)nc2n1Cc1ccccc1`, the photoluminescence quantum yield is, setting by setting: (in C1COCCO1) 0.95; (in CC#N) 0.87; (in CO) 0.92; (in ClCCl) 0.95.

As to `CSc1sc(C(C)=O)c2nn[nH]c(=O)c12`, the photoluminescence quantum yield (in C1CCOC1) amounted to 0.015; the photoluminescence quantum yield (in CC#N) was 0.017; the photoluminescence quantum yield (in CCO) was 0.0091; the photoluminescence quantum yield (in CN(C)C=O) was found to be 0.0047; the photoluminescence quantum yield (in CO) amounted to 0.0077; the photoluminescence quantum yield (in CS(C)=O) is 0.0048.

For the molecule `COc1ccc(C#Cc2ccc(C#Cc3ccc(C#Cc4ccccc4C#N)cc3C#N)cc2C#N)cc1`, the photoluminescence quantum yield amounted to 0.972 (in C1CCOC1); 0.973 (in CC#N); 0.949 (in CN(C)C=O); 0.982 (in ClC(Cl)Cl); 0.972 (in c1ccccc1).

As to `CCC1=C(C)C2=Cc3c(I)c(I)c(I)n3[B-](F)(F)[N+]2=C1C`, the photoluminescence quantum yield came to 0.065 (in C1CCCCC1); 0.029 (in CC(C)=O); 0.037 (in CCO); 0.037 (in CCOC(C)=O); 0.032 (in CO); 0.021 (in OCC(F)(F)F).

For the setting “in CO”, `N#Cc1c(-n2nnc3ccccc32)n([C@H]2C[C@H](O)[C@@H](CO)O2)c2ncnc(N)c12` had a photoluminescence quantum yield of 0.002.

`CCOC(=O)CSc1nc2c(c(C#N)c1C#N)CCCCCC2` registered a photoluminescence quantum yield (in c1ccccc1) of 0.039.

With `Cc1ccc2nc3cc4c(cc3c(-c3ccccc3)c2c1)[Si](C)(C)O[Si]4(C)C`, the photoluminescence quantum yield (in ClCCl) was 0.27.

`CC1=[N+]2C(=C(c3ccccc3)c3ccc(C)n3[B-]2(F)F)C=C1` came in with a photoluminescence quantum yield (in C1CCCCC1) of 0.29; a photoluminescence quantum yield (in C1CCOC1) of 0.25; a photoluminescence quantum yield (in CC#N) of 0.17; a photoluminescence quantum yield (in CCOC(C)=O) of 0.25; a photoluminescence quantum yield (in CO) of 0.19; a photoluminescence quantum yield (in Cc1ccccc1) of 0.42. In addition, under “in ClC(Cl)Cl”, the photoluminescence quantum yield is 0.38.

In the case of `C[Si]1(C)O[Si](C)(C)c2cc3c(-c4ccc(F)cc4)c4ccccc4nc3cc21`, under “in ClCCl”, the photoluminescence quantum yield amounted to 0.39.

`Cc1ccc(S(=O)(=O)/N=c2\oc3cccc4c5c(-c6ccccc6)oc6cccc(c(c2-c2ccccc2)c34)c65)cc1`: the photoluminescence quantum yield (in ClC(Cl)Cl) worked out at 0.64.

Take `COC(=O)c1ccc(C2=C3C=CC(C)=[N+]3[B-](F)(F)n3c(C)ccc32)cc1`: the photoluminescence quantum yield runs as follows: (in C1CCCCC1) 0.073; (in C1CCOC1) 0.056; (in CC#N) 0.039; (in CCOC(C)=O) 0.053; (in CO) 0.032; (in Cc1ccccc1) 0.12. This molecule displayed a photoluminescence quantum yield (in ClC(Cl)Cl) of 0.095.

For the setting “in ClCCl”, `Clc1ccc(N2c3sc4ccccc4c3Sc3c2sc2ccccc32)cc1` returned a photoluminescence quantum yield of 0.18.

For `O=C1Cc2cc3c(cc2CCCc2ccc(cc2)CCC3)CC(=O)Cc2ccc(c3nsnc23)C1`, the photoluminescence quantum yield is, setting by setting: (in C1CCCCC1) 0.13; (in CC#N) 0.01; (in ClC(Cl)Cl) 0.05.

In the case of `Cc1cc(C)c(-c2cc(-c3c(C)cc(C)cc3C)c3ccc4c(-c5c(C)cc(C)cc5C)cc(-c5c(C)cc(C)cc5C)c5ccc2c3c54)c(C)c1`, the photoluminescence quantum yield (in ClCCl) is 0.28.

Turning to `CC(C)c1cccc(C(C)C)c1N1C(=O)c2cc(Cl)c3c4c(Cl)cc5c6c(cc(Cl)c(c7c(Cl)cc(c2c37)C1=O)c64)C(=O)N(c1c(C(C)C)cccc1C(C)C)C5=O`, the photoluminescence quantum yield (in Cc1ccccc1) is 0.95.

Turning to `Cc1sc(Cl)cc1-c1nc(-c2ccc(Cl)cc2)[nH]c1-c1cc(Cl)sc1C`, the photoluminescence quantum yield (in CC#N) came out at 0.114.

Turning to `O=S1(=O)c2ccccc2C2(c3cc(-c4ccc(-n5c6ccccc6c6ccccc65)cc4)ccc3-c3ccc(-c4ccc(-n5c6ccccc6c6ccccc65)cc4)cc32)c2ccccc21`, the photoluminescence quantum yield came out at 0.81 (in ClCCl) and 0.86 (in c1cc(-n2c3ccccc3c3ccccc32)cc(-n2c3ccccc3c3ccccc32)c1).

As for `COc1ccc2c3cccc4c(OC)ccc(c5cccc1c52)c43`, the photoluminescence quantum yield (in C1CCOC1) was determined as 0.88; the photoluminescence quantum yield (in Cc1ccccc1) turned out to be 0.76; the photoluminescence quantum yield (in ClC(Cl)(Cl)Cl) amounted to 0.05; the photoluminescence quantum yield (in ClC(Cl)Cl) came to 0.82; the photoluminescence quantum yield (in ClCCl) was 0.94; the photoluminescence quantum yield (in c1ccncc1) stood at 0.9.

`c1ccc(N(c2ccccc2)c2ccc(-c3cncs3)cc2)cc1` registered a photoluminescence quantum yield (in CO) of 0.53.

Take `CC(=O)[B-]1(C(C)=O)OC(C)=CC(c2ccc3ccccc3c2)=[O+]1`: the photoluminescence quantum yield is, setting by setting: (in CC#N) 0.13; (in ClC(Cl)(Cl)Cl) 0.16.

As to `O=S(=O)(/N=c1\oc2cccc3c4c(-c5ccccc5)oc5cccc(c(c1-c1ccccc1)c23)c54)C(F)(F)F`, the photoluminescence quantum yield is, setting by setting: (in CCCCCC) 0.7; (in CO) 0.78; (in CS(C)=O) 0.6; (in ClC(Cl)Cl) 0.92; (in ClCCl) 0.94; (in O) 0.05.

For `CCCCCCCCCCOc1cc(OCCCCCCCCCC)cc(C2=C3C(/C=C/c4ccc(N(C)C)cc4)=C(C#Cc4ccc(C(C)(C)C)cc4)C(/C=C/c4ccc(N(C)C)cc4)=[N+]3[B-](F)(F)n3c(/C=C/c4ccc(N(C)C)cc4)c(C#Cc4ccc(C(C)(C)C)cc4)c(/C=C/c4ccc(N(C)C)cc4)c32)c1`, where the note is “in ClC(Cl)Cl”, the photoluminescence quantum yield came out at 0.05.

`CCCC1(CCC)c2cc(-c3ccc(-c4ccc(OC)cc4)o3)ccc2-c2ccc(-c3ccc(-c4ccc(OC)cc4)o3)cc21` displayed a photoluminescence quantum yield (in C1CCCCC1) of 0.79.

The molecule `O=C1/C(=C2\Nc3cc4ccc5cccc6ccc(c3C2=O)c4c56)Nc2cc3ccc4cccc5ccc(c21)c3c45` showed a photoluminescence quantum yield (in C1CCOC1) of 0.0076.

Regarding `COc1ccc(-c2cc(-c3ccccc3)c3n2[B-](F)(F)[N+]2=C4C=NC=CN4[B-](F)(F)[N+]2=C3)cc1`, the photoluminescence quantum yield (in ClCCl) worked out at 0.46.

In turn, `O=C1OC(c2ccccc2)=C/C1=C\c1ccc([N+](=O)[O-])cc1` showed a photoluminescence quantum yield (in C1COCCO1) of 0.083.
